Source: patent publication US10030006B2, “Coumarin based Hsp90 inhibitors with urea and ether substituents” (University of Kansas, priority 2013, dated 2018)
Like-named read-outs stand apart in the source and are kept apart here. Blank lines part the entries; values can stand above or below the compound they belong to.

Columns and labels:
[1] = test system: SKBr3 (estrogen receptor negative, Her2 over-expressing breast cancer cells); assay: Anti-proliferation assay (MTS/PMS, 72 h), SKBr3; type: cell-based
Method: (§1) Cells were maintained in a 1:1 mixture of Advanced DMEM/F12 (Gibco) supplemented with non-essential amino acids, L-glutamine (2 mM), streptomycin (500 μg/mL), penicillin (100 units/mL), and 10% FBS. Cells were grown to confluence in a humidified atmosphere (37° C., 5% CO2), seeded (2000/well, 100 μL) in 96-well plates, and allowed to attach overnight. Compound at varying concentrations in DMSO (1% DMSO final concentration) was added, and cells were returned to the incubator for 72 h. At 72 h, the number of viable cells was determined using an MTS/PMS cell proliferation kit (Promega) per the manufacturer's instructions. Cells incubated in 1% DMSO were used at 100% proliferation, and values were adjusted accordingly. IC50 values were calculated from separate experiments performed in triplicate using GraphPad Prism.
(§2) The anti-proliferative activity of these compounds is evaluated against two breast cancer cell lines, SKBr3 (estrogen receptor negative, Her2 over-expressing breast cancer cells) and MCF-7 (estrogen receptor positive breast cancer cells).

[2] = test system: MCF-7 (estrogen receptor positive breast cancer cells); assay: Anti-proliferation assay (MTS/PMS, 72 h), MCF-7; type: cell-based
Method: as §1, §2

[3] = Homo sapiens, SK-BR-3, Table 4, alkylamino analogues, read-out: SKBr3
[4] = Homo sapiens, MCF7, Table 4, alkylamino analogues, read-out: MCF-7
[5] = Table 3, cycloamine analogues, read-out: SKBr3
[6] = Table 3, cycloamine analogues, read-out: MCF-7
[7] = Homo sapiens, SK-BR-3, Table 8, biphenyl ureas, Breast Cancer, read-out: IC50 SKBr3
[8] = Homo sapiens, MCF7, Table 8, biphenyl ureas, Breast Cancer, read-out: IC50 MCF-3

Structure (SMILES): CC(=O)Oc1ccc(C(=O)Nc2cc3ccc(OCC4CCN(C)C4)c(C)c3oc2=O)cc1CC=C(C)C (centres unmarked)
IC50 [1, 5]: 0.88 ± 0.09 µM
IC50 [2, 6]: 1.88 ± 0.45 µM

Structure (SMILES): COc1cccc(-c2cc(NC(=O)Nc3cc4ccc(OC5CCN(C)CC5)c(C)c4oc3=O)ccc2C)c1 [CH3, OMe, 1-(3′-methoxy-6-methyl-[1,1′-biphenyl]-3-yl)-3-(8-methyl-7-((1-methylpiperidin-4-yl)oxy)-2-oxo-2H-chromen-3-yl)urea]
IC50 [1, 7]: 0.25 µM
IC50 [2, 8]: 0.21 µM

Structure (SMILES): CC(C)=CCc1cc(C(=O)Nc2cc3ccc(OCC4CCCNC4)c(C)c3oc2=O)ccc1O (centres unmarked)
IC50 [1, 5]: 0.6 ± 0.01 µM
IC50 [2, 6]: 0.79 ± 0.1 µM

Structure (SMILES): CC(C)=CCc1cc(C(=O)Nc2cc3ccc(OCCCN4CCOCC4)c(C)c3oc2=O)ccc1O [drawing 145]
IC50 [1, 5]: > 50 µM
IC50 [2, 6]: > 50 µM

Structure (SMILES): Cc1c(OC2CCN(C)CC2)ccc2cc(NC(=O)NCc3ccc(Oc4ccccc4)cc3)c(=O)oc12
IC50 ([1]; Table 9, non-aryl ureas, Breast Cancer, read-out: IC50 SKBr3): 0.23 ± 0.08 µM
IC50 ([2]; Table 9, non-aryl ureas, Breast Cancer, read-out: IC50 MCF-3): 0.38 ± 0.04 µM

Structure (SMILES): CC(C)=CCc1cc(C(=O)Nc2cc3ccc(OC4CCN(C)CC4)c(C)c3oc2=O)ccc1OCCN(C)C [Compound 23, 4-(2-(dimethylamino)ethoxy)-N-(8-methyl-7-(1-methylpiperidin-4-yloxy)-2-oxo-2H-chromen-3-yl)-3-(3-methylbut-2-enyl)benzamide]
IC50 ([1]; Homo sapiens, SK-BR-3, Table 2, modified benzamide and biphenylamide derivatives (in μM), read-out: SKBr3): 0.33 µM
IC50 ([2]; Homo sapiens, MCF7, Table 2, modified benzamide and biphenylamide derivatives (in μM), read-out: MCF-7): 0.72 ± 0.08 µM

Structure (SMILES): CCCCOc1ccc(C(=O)Nc2cc3ccc(OC4CCN(C)CC4)c(C)c3oc2=O)cc1CC=C(C)C [Compound 17, 4-butoxy-N-(8-methyl-7-(1-methylpiperidin-4-yloxy)-2-oxo-2H-chromen-3-yl)-3-(3-methylbut-2-enyl)benzamide]
IC50 ([1]; Homo sapiens, SK-BR-3, Table 1, modified benzamide coumarin derivatives, read-out: SKBr3): 1.4 ± 0.07 µM
IC50 ([2]; Homo sapiens, MCF7, Table 1, modified benzamide coumarin derivatives, read-out: MCF-7): 1.44 ± 0.05 µM

Structure (SMILES): CC(C)=CCc1cc(C(=O)Nc2cc3ccc(OCCCN4CCNCC4)c(C)c3oc2=O)ccc1O
IC50 [1, 5]: 0.82 ± 0.02 µM
IC50 [2, 6]: 0.93 ± 0.21 µM

Structure (SMILES): CC(=O)Oc1ccc(C(=O)Nc2cc3ccc(OCCC4CCCCN4)c(C)c3oc2=O)cc1CC=C(C)C (centres unmarked)
IC50 [1, 5]: 0.64 ± 0.06 µM
IC50 [2, 6]: 0.71 ± 0.03 µM

Structure (SMILES): CCN(C)CCCOc1ccc2cc(NC(=O)c3ccc(O)c(CC=C(C)C)c3)c(=O)oc2c1C [Compound 68b, N-(7-(3-(ethyl(methyl)amino)propoxy)-8-methyl-2-oxo-2H-chromen-3-yl)-4-hydroxy-3-(3-methylbut-2-en-1-yl)benzamide]
IC50 [1, 3]: 0.73 ± 0.06 µM
IC50 [2, 4]: 2.19 ± 0.5 µM

Structure (SMILES): CC(=O)Oc1ccc(C(=O)Nc2cc3ccc(OCC4CCCNC4)c(C)c3oc2=O)cc1CC=C(C)C (centres unmarked)
IC50 [1, 5]: 0.62 ± 0.04 µM
IC50 [2, 6]: 0.82 ± 0.07 µM

The next lines start with the values.

IC50 [1, 3]: 1.6 ± 0.02 µM
IC50 [2, 4]: 1.31 ± 0.39 µM
Structure (SMILES): CC(C)=CCc1cc(C(=O)Nc2cc3ccc(OCCCN(C(C)C)C(C)C)c(C)c3oc2=O)ccc1O [Compound 68i, N-(7-(3-(diisopropylamino)propoxy)-8-methyl-2-oxo-2H-chromen-3-yl)-4-hydroxy-3-(3-methylbut-2-en-1-yl)benzamide]

IC50 ([1]; Homo sapiens, SK-BR-3, Table 5, alkylether derivatives with cyclic N-substitutions, read-out: SKBr3): 1 ± 0.31 µM
IC50 ([2]; Homo sapiens, MCF7, Table 5, alkylether derivatives with cyclic N-substitutions, read-out: MCF-7): 1.45 ± 0.2 µM
Structure (SMILES): CC(C)=CCc1cc(C(=O)Nc2cc3ccc(OCCCN(C)[C@H](C)c4ccccc4)c(C)c3oc2=O)ccc1O [Compound 70f, (R)-4-hydroxy-N-(8-methyl-7-(3-(methyl(1-phenylethyl)amino)propoxy)-2-oxo-2H-chromen-3-yl)-3-(3-methylbut-2-en-1-yl)benzamide]

IC50 [1, 5]: > 50 µM
IC50 [2, 6]: > 50 µM
Structure (SMILES): CC(C)=CCc1cc(C(=O)Nc2cc3ccc(OCCCN4CCCCC4)c(C)c3oc2=O)ccc1O [drawing 146]

IC50 [1, 3]: 1.03 ± 0.02 µM
IC50 [2, 4]: 1.32 ± 0.06 µM
Structure (SMILES): CC(C)=CCc1cc(C(=O)Nc2cc3ccc(OCCCNCC(C)C)c(C)c3oc2=O)ccc1O [Compound 68f, 4-hydroxy-N-(7-(3-(isobutylamino)propoxy)-8-methyl-2-oxo-2H-chromen-3-yl)-3-(3-methylbut-2-en-1-yl)benzamide]

IC50 [1, 7]: 0.45 µM
IC50 [2, 8]: 0.93 µM
Structure (SMILES): COc1ccc(NC(=O)Nc2cc3ccc(OC4CCN(C)CC4)c(C)c3oc2=O)cc1-c1ccccc1 [OMe, H, 1-(6-methoxy-[1,1′-biphenyl]-3-yl)-3-(8-methyl-7-((1-methylpiperidin-4-yl)oxy)-2-oxo-2H-chromen-3-yl)urea]
